Source: paper PMC5412315, “Wedelolactone Acts as Proteasome Inhibitor in Breast Cancer Cells” (International Journal of Molecular Sciences, 2017)

Columns and labels:
[1] = tested on: MDA-MB-231, MDA-MB-468 and T47D cells over-expressing CTR1; experiment: Cell mortality by PI exclusion assay (flow-cytometry) in copper-loaded vs control cells; type: cell-based, human; conditions: 48 h, CTR1 overexpression with/without 25 μM copper sulfate pretreatment 24 h
Protocol: (§1) Figure 4 Copper loading enhances cytotoxicity and ROS production in wedelolactone-treated breast cancer cells. MDA-MB-231, MDA-MB-468, and T47D cells were transiently transfected with pCNDA3.1-hCTR1-N-Myc (CTR1) or control pCDNA3.1 plasmids (cmv), pretreated with copper sulfate (Cu) for 24 h and subsequently treated with wedelolactone (w) or solvent (DMSO) in fresh media. (A) Cells were harvested and expression of exogenous CTR1 protein was confirmed by SDS-PAGE followed by immunoblotting with the Myc-Tag antibody; (B) Relative copper concentration in cell lysates was analyzed by SALD ICP MS. Data for copper are presented as an integrated ^63Cu/^60Ni signal ratio. (C) Cell mortality and (D) ROS production were evaluated after PI/DHE staining using flow-cytometry. The data represent the mean values from three independent experiments. Error bars indicate the SD. * indicates a significant (p < 0.05) difference.
3 × 10^5 cells were seeded in 6-well plates. After 24 h, transient transfection was performed, using 3 μL of Lipofectamine LTX reagent (Invitrogen) with a mixture containing 1.5 μg of pCNDA3.1-hCTR1-N-Myc or control pCDNA3.1 plasmid and 1.5 μL of PLUS reagent (Invitrogen). […] Cytotoxicity of wedelolactone was analyzed 48 h later by PI staining (1 μg/mL) using flow-cytometry as described previously.

[2] = target: T1, 26S proteasome purified from MDA-MB-231 cells (Homo sapiens, UniProt P28074); experiment: Proteasome activity in vitro, purified 26S proteasome; type: biochemical; conditions: Suc-LLVY-AMC, 1 h, read-out: IC50, chymotrypsin-like activity
T1 construct: Human 26S proteasome was purified from 8 × 10^6 of MDA-MB-231 cells; endogenous in cells; host or cells: MDA-MB-231 cells; purified with The Rapid 26S Proteasome Purification Kit (J4310, UBPBio)
Protocol: (§2) Figure 2 Wedelolactone inhibits chymotrypsin-like, trypsin-like, and caspase-like activities of purified 26S and 20S proteasome complexes in vitro. Wedelolactone (w) was added at various concentrations to reaction mixture containing either (A) 26S proteasome purified from MDA-MB-231 cells or (B) commercially available 20S proteasome, and fluorogenic substrate (Suc-LLVY-AMC for testing chymotrypsin-like, Z-LLE-AMC for caspase-like, and Boc-LRR-AMC for trypsin-like activities). Fluorescence was measured after 1 h incubation. MG132 was used as a positive control. The data represent the mean values from three independent experiments. Error bars indicate the SD. * indicates a significant (p < 0.05) difference in proteolytic activities between reaction mixtures containing wedelolactone/MG132 and DMSO.
Human 26S proteasome was purified from 8 × 10^6 of MDA-MB-231 cells using The Rapid 26S Proteasome Purification Kit (J4310, UBPBio) according to manufacturer’s instructions.
(§3) Chymotrypsin-like, trypsin-like and caspase-like proteasome activities were determined using Proteasome Activity Fluorometric Assay Kit II (J4120, UBPBio) according to manufacturer’s instructions. […] Fluorescence was measured by TECAN infinite 200 plate reader (TECAN, Mannedorf, Switzerland) for 1 h at 37 °C.

bovine 20S proteasome = target: T2, bovine 20S proteasome (Bos taurus, UniProt Q32KL2); experiment: Proteasome activity in vitro, commercially available 20S proteasome; type: biochemical; conditions: Suc-LLVY-AMC, 1 h, read-out: IC50, chymotrypsin-like activity
T2 construct: purchased UBPBio A1400
Protocol: as §2, §3

proteasome in T47D cells = target: T3, proteasome in T47D cells (Homo sapiens, UniProt P28074); experiment: Proteasome activity in cell extracts of treated T47D cells (fluorogenic substrates); type: cell-based; conditions: T47D cells treated 10 h, cell extract, Suc-LLVY-AMC; read-out: IC50, chymotrypsin-like activity of proteasome
T3 construct: endogenous in cells; host or cells: MDA-MB-231, MDA-MB-468 or T47D cells (treated 10 h, then lysed)
T3 sequence (P28074 60-263): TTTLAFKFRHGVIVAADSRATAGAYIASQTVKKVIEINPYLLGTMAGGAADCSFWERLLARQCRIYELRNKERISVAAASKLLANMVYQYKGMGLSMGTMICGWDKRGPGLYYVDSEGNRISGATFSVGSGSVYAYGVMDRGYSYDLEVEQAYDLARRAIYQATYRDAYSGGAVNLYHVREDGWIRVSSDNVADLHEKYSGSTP
T3 sequence (P28072 1-239 partner): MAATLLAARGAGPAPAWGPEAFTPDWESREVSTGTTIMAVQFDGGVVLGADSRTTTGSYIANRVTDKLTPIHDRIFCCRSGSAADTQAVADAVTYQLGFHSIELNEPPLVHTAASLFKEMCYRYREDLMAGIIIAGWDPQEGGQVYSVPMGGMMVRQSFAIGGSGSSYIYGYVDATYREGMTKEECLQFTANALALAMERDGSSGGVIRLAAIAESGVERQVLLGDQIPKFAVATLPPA
T3 sequence (Q99436 44-277 partner): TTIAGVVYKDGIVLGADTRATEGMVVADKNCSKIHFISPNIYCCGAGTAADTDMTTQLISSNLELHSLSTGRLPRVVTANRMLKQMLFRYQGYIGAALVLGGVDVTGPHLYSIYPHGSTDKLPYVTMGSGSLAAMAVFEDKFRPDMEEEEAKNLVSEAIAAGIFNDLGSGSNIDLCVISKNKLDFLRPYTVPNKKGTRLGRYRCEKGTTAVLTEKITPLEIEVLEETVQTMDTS
Protocol: (§4) Figure 1 Wedelolactone inhibits chymotrypsin-like, trypsin-like and caspase-like activities in breast cancer cells. MDA-MB-231 (A); MDA-MB-468 (B); and T47D (C) cells were treated with various concentrations of wedelolactone (w) for 10 h. Proteasome activities were evaluated in cell extracts using the activity-specific fluorogenic substrates (Suc-LLVY-AMC for testing chymotrypsin-like, Z-LLE-AMC for caspase-like, and Boc-LRR-AMC for trypsin-like activities). Treatment with MG132 served as a positive control. The data represent the mean values from three independent experiments. Error bars indicate the SD. * indicates a significant (p < 0.05) difference between wedelolactone-/MG132- and DMSO-treated cells.
(§5) MDA-MB-231, MDA-MB-468 and T47D (6 × 10^5) cells were seeded in 5 mL of culture media, exposed to various concentrations of wedelolactone, DMSO or 10 μM MG132 for 10 h. Cells were harvested, resuspended in cell lysis buffer (40 mM Tris, pH 7.2, 50 mM NaCl, 2 mM β-mercaptoethanol, 2 mM ATP, 5 mM MgCl, 10% Glycerol) and briefly sonicated using an Ultrasonic Processor UP100H (Hielscher, Ringwood, NJ, USA). Cell lysates were cleared by centrifugation and protein concentration in supernatant was determined using DC protein assay (Biorad, Hercules, CA, USA). […] Fluorescence was measured by TECAN infinite 200 plate reader (TECAN) for 1 h at 37 °C.

[3] = tested on: CDKN1A, CDKN1B, TP53 and BAX genes in MDA-MB-231, MDA-MB-468 and T47D cells; experiment: qPCR of CDKN1A, CDKN1B, TP53 and BAX transcripts; type: cell-based, human; conditions: 10 h, all three cell lines
Protocol: (§6) Figure 3 Multiubiquitinated and high turnover proteins accumulate in wedelolactone-treated breast cancer cells. MDA-MB-231, MDA-MB-468, and T47D cells were treated with various concentrations of wedelolactone or solvent for 10 h. (A) Protein extracts were subsequently analyzed by SDS-PAGE and immunoblotting using p21-, p27-, p53-, Bax-, and ubiquitin-specific antibodies. Treatment with MG132 served as a positive control; (B) Transcripts of CDKN1A, CDKN1B, TP53 and BAX genes were quantified using qPCR.
1 × 10^6 cells were seeded in 5 mL dishes. Next day, the cells were exposed to various concentrations of wedelolactone or DMSO for 10 h. Cells were harvested and total RNA was isolated using GenElute Mammalian Total RNA Miniprep kit (Sigma-Aldrich). For cDNA synthesis, 1 μg of total RNA was reverse-transcribed using the QuantiTect Reverse Transcription kit (Qiagen, Hilden, Germany) according to the manufacturer’s instructions in a final reaction volume of 20 μL. Expression of CDKN1A, CDKN1B, TP53 and BAX genes was determined using the target-specific primers (Table S1) and KAPA SYBR FAST qPCR MASTER MIX (KK460, Kapa Biosystems, Cambridge, MA, USA) on LightCycler 480 II (Roche, Basel, Switzerland). Expression of the reference GAPDH gene (probe 4326317E, ThermoFisher Scientific, Waltham, MA, USA) was used for data normalization.

[4] = tested on: MDA-MB-231, MDA-MB-468 and T47D cells over-expressing CTR1; experiment: ROS production by DHE staining (flow-cytometry) in copper-loaded vs control cells; type: cell-based, human; conditions: 10 h, CTR1 overexpression with/without 25 μM copper sulfate pretreatment 24 h
Protocol: as §1
3 × 10^5 cells were seeded in 6-well plates. After 24 h, transient transfection was performed as described in chapter 4.6. […] Reactive oxygen species (ROS) were measured using flow-cytometry (BD FACSVerse, BD Biosciences, Franklin Lakes, NJ, USA) at an excitation wavelength of 485 nm and an emission wavelength of 538 nm. Data were analyzed using BD FACSuite software (BD Biosciences).

[5] = tested on: purified 26S and 20S proteasome complexes; experiment: Proteasome activity in vitro (statements on purified 26S and 20S together); type: biochemical
Protocol: as §2, §3

breast cancer cell lines = tested on: breast cancer cell lines; parameters: method as in PMID 21315506, PMID 22733624; conditions: all three breast cancer cell lines, at concentrations corresponding to the IC50 values; cited from earlier work
[6] = tested on: p21, p27, p53, Bax and multiubiquitinated proteins in MDA-MB-231, MDA-MB-468 and T47D cells; experiment: Immunoblotting of polyubiquitinated and short-lived proteins; type: cell-based, human; conditions: 10 h, all three cell lines
Protocol: as §6
5 × 10^5 cells were seeded in 6-well plates. The next day, the cells were exposed to various concentrations of wedelolactone, DMSO, or 10 μM MG132 for 10 h. Cells were harvested and lysed as described previously. Cell lysates were subjected to SDS–PAGE and immunoblotted. Sample loading was normalized according to protein concentration determined by DC protein assay (Biorad). Blots were probed with anti-ubiquitin (3933S; Cell Signaling Technology, Inc., Beverly, MA, USA), anti-p21, anti-p27 (sc-817 and sc-528; Santa Cruz Biotechnology Inc., Santa Cruz, CA, USA), anti-p53, anti-Bax or anti-Myc-Tag (9282, 5023 and 2276S; Cell Signaling Technology), anti-α-tubulin antibodies (T9026; Sigma-Aldrich), and secondary antibodies conjugated with peroxidase (Sigma-Aldrich). […]

[7] = target: T4, proteasome in MDA-MB-468 cells (Homo sapiens, UniProt P28074); experiment: Proteasome activity in cell extracts of treated MDA-MB-468 cells (fluorogenic substrates); type: cell-based; conditions: MDA-MB-468 cells treated 10 h, cell extract, Suc-LLVY-AMC; read-out: IC50, chymotrypsin-like activity of proteasome
T4 construct: endogenous in cells; host or cells: MDA-MB-231, MDA-MB-468 or T47D cells (treated 10 h, then lysed)
T4 sequence (P28074 60-263): T3 sequence (P28074 60-263)
T4 sequence (P28072 1-239 partner): T3 sequence (P28072 1-239 partner)
T4 sequence (Q99436 44-277 partner): T3 sequence (Q99436 44-277 partner)
Protocol: as §4, §5

[8] = target: T5, proteasome in MDA-MB-231 cells (Homo sapiens, UniProt P28074); experiment: Proteasome activity in cell extracts of treated MDA-MB-231 cells (fluorogenic substrates); type: cell-based; conditions: MDA-MB-231 cells treated 10 h, cell extract, Suc-LLVY-AMC; read-out: IC50, chymotrypsin-like activity of proteasome
T5 construct: endogenous in cells; host or cells: MDA-MB-231, MDA-MB-468 or T47D cells (treated 10 h, then lysed)
T5 sequence (P28074 60-263): T3 sequence (P28074 60-263)
T5 sequence (P28072 1-239 partner): T3 sequence (P28072 1-239 partner)
T5 sequence (Q99436 44-277 partner): T3 sequence (Q99436 44-277 partner)
Protocol: as §4, §5

[9] = target: T6, proteasome in breast cancer cells (MDA-MB-231, MDA-MB-468, T47D) (Homo sapiens, UniProt P28072+P28074+Q99436); experiment: Proteasome activity in breast cancer cell lines (statements on all three lines); type: cell-based; conditions: 10 h, cell extracts
T6 construct: endogenous in cells; host or cells: MDA-MB-231, MDA-MB-468 and T47D cells; in A12 transiently transfected with hCTR1-N-Myc, with or without copper loading, while the proteasome itself stays endogenous
T6 sequence (P28074 60-263): T3 sequence (P28074 60-263)
T6 sequence (P28072 1-239): T3 sequence (P28072 1-239 partner)
T6 sequence (Q99436 44-277): T3 sequence (Q99436 44-277 partner)
Protocol: as §4, §5

## COc1cc(O)c2c(c1)oc(=O)c1c3cc(O)c(O)cc3oc21 [Wedelolactone]
[1]
  Cytotoxicity (cell mortality), effect of copper loading: enhanced by copper loading
[2]
  IC50: 9.97 µM
Bovine 20S proteasome
  IC50: 6.13 µM
Proteasome in T47D cells
  IC50: 19.5 µM
[3]
  Expression of CDKN1A, CDKN1B, TP53 and BAX genes: did not affect expression of any of these genes
[4]
  ROS production, effect of copper loading: Copper-loaded cells produced more ROS
[5]; purified 26S and 20S proteasome, 1 h
  Inhibition of chymotrypsin-like, trypsin-like and caspase-like activities in vitro: inhibited all three proteasomal activities in vitro in a dose-dependent manner
[5]; summary over purified 26S and 20S proteasome, read-out: IC50 values for chymotrypsin-like inhibitory activity, in vitro
  IC50: < 10 µM
Breast cancer cell lines
  Growth arrest and apoptosis: induced growth arrest and apoptosis
[6]
  Level of p21, p27, p53, Bax and multiubiquitinated proteins: dose-dependent accumulation
[7]
  IC50: 12.8 µM
[8]
  IC50: 27.8 µM
[9]
  Inhibition of chymotrypsin-like, trypsin-like and caspase-like activities of proteasome in cells: inhibited all three proteolytic activities of proteasome
